Measurements from patent US20110195432A1, “METHODS FOR THE SELECTION OF THERAPEUTIC TREATMENTS FOR CANCER” (priority 2008, published 2011).
“Also recorded” adds a separate entry of the source.

Key:
AR = assay: Real-time PCR of AR gene expression, VCaP cells; type: cell-based
From the text: All samples were run in triplicate. The vehicle-treated sample was set to 1.

HDAC6 = assay: Western blot of HDAC6 protein levels, LNCaP cells; type: cell-based
PSA and TMPRSS2-ERG = settings: VCaP cells; 24 hours; increasing doses; vehicle set to 1
Protocol: To determine the functional consequences of sulforaphane-mediated reduction in AR protein levels, real-time PCR was conducted for several AR target genes, including PSA and the TMPRSS2-ERG gene fusion present in VCaP cells (FIGS. 5A-C). Cells were lysed in Trizol (Invitrogen, Carlsbad, Calif.) and then purified with the RNAEasy Kit (Qiagen, Valencia, Calif.). One μg of RNA was reverse-transcribed using the Omniscript RT kit (Qiagen, Valencia, Calif.). Real-time PCR primer sequences and conditions were as follows.
The real-time PCR program consisted of: 50° C. for 2 minutes for 1 cycle; 95° C. for 10 minutes for 1 cycle; 95° C. for 15 seconds and 60° C. for 15 seconds for a total of 40 cycles. Standard curves were generated by measuring expression of target genes and 18S rRNA in serial dilutions of a mock-treated control. All samples were run in triplicate. The vehicle-treated sample was set to 1.

recombinant HDAC6 = molecular target: T1, recombinant HDAC6 (Homo sapiens, UniProt Q9UBN7); settings: cell-free; 7.5 or 15 μM sulforaphane, or 400 nM TSA; versus vehicle-treated HDAC6 control
T1 sequence (Q9UBN7 1-1215): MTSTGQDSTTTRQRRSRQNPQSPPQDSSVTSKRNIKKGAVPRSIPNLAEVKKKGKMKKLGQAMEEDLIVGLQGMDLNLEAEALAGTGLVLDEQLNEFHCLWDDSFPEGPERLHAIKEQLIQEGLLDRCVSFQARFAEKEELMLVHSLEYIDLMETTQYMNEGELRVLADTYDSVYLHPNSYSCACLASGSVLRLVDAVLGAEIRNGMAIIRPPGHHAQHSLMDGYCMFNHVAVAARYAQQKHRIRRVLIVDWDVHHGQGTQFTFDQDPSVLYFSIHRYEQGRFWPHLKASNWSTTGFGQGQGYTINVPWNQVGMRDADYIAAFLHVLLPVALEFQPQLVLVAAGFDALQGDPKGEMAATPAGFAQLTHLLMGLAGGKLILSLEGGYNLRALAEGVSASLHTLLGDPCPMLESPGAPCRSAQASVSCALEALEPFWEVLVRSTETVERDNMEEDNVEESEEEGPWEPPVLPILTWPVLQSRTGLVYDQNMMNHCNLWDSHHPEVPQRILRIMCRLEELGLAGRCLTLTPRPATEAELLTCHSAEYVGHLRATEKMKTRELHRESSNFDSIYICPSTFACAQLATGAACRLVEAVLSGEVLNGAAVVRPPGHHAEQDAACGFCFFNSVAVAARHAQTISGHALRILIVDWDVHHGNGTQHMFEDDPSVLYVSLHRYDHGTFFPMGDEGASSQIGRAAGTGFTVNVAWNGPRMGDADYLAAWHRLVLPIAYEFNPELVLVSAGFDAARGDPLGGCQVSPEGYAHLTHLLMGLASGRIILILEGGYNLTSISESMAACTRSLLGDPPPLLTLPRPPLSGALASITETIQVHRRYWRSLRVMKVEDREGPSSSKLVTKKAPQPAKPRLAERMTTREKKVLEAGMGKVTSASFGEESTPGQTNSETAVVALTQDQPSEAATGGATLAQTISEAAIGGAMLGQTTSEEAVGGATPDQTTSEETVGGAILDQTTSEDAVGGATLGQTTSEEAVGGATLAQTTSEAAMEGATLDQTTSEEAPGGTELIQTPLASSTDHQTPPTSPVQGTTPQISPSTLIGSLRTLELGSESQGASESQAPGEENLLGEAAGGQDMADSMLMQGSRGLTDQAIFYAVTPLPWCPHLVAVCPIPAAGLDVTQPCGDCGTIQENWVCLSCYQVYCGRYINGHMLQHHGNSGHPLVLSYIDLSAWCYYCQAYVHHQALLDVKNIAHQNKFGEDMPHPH

What does the source list for `C[S+]([O-])CCCCN=C=S` (stereo not drawn) [sulforaphane, 1-Isothiocyanato-4-methylsulfinylbutane]?
AR transcript levels at highest doses (AR; 15-20 μM): declined; AR transcripts (AR; 24 hours, increasing doses of sulforaphane, or TSA, vehicle set to 1): not consistently suppressed; HDAC6 protein levels at later time points (HDAC6; 16 hours): reduced HDAC6 protein levels; HDAC6 protein expression in HDAC6-over-expressing cells (HDAC6; FLAG-HDAC6 transfected LNCaP cells, sulforaphane-treated, versus empty-vector, sulforaphane-treated cells): restored; HDAC6 protein levels with concomitant proteasome inhibitor (HDAC6; LNCaP cells, 16 hours, 20 μM sulforaphane with 20 μM MG132 versus sulforaphane-treated cells): restored HDAC6 protein levels; levels of HDAC6 in input whole cell lysate (HDAC6; LNCaP cells, early time point, 4 hours, versus vehicle): similar; also recorded: without changing its levels; HDAC6 protein levels (HDAC6; empty-vector transfected LNCaP cells, 16-hour treatment with 15 nM sulforaphane versus vehicle): reduced; AR target gene expression (PSA, TMPRSS2-ERG) (PSA and TMPRSS2-ERG): dose-dependent reduction; HDAC6 deacetylase activity on tubulin (recombinant HDAC6): decreased HDAC6 deacetylase activity; also recorded: inhibited HDAC6 deacetylase activity
